From patent publication US12391721B2, “Crystal forms of beta-nicotinamide mononucleotide” (Metro International Biotech, LLC, priority 2015, dated 2025)

Columns and labels:
Assay type in all cases: physicochemical
[1] = Three month stability and forced degradation study: HPLC purity of stored solids; conditions: for Known Impurity* (%) (nicotinamide, RRT = 1.73 min) / Purity (%): HPLC
Procedure: Purity analysis was performed on an Agilent HP1100 series system equipped with a diode array detector and using ChemStation software vB.04.03 using the method detailed below in Table 1.
(§1) […] The samples were prepared in duplicate with an offset of 2 weeks. Each replicate was stored in a different container.
(§2) Replicate 1 was charged in an open HPLC vial that was placed in a sealed scintillation vial containing a saturated solution of the relevant inorganic salt (Table 2). These samples were analysed by HPLC, 1H NMR, XRPD and Polarized Light Microscopy (PLM) at 4, 8, and 12 week time points.
(§3) Replicate 2 was stored in sealed box with a recipient containing a saturated solution of the relevant inorganic salt (Table 2). These samples were analysed by HPLC at 2, 6, 10 and 12 week time points. Samples at 25° C./0% RH were stored in a sealed box containing a desiccant agent (P2O5).

[2] = Three month stability and forced degradation study: solid form by XRPD after storage; conditions: for XRPD: Replicate 1
Procedure: X-Ray Powder Diffraction patterns were collected on a Bruker D8 diffractometer using Cu Kα radiation (40 kV, 40 mA), θ-2θ goniometer, and divergence of V4 and receiving slits, a Ge monochromator and a Lynxeye detector. The instrument is performance checked using a certified Corundum standard (NIST 1976). The software used for data collection was Diffrac Plus XRD Commander v2.6.1 and the data were analysed and presented using Diffrac Plus EVA v15.0.0.0.
Samples were run under ambient conditions as flat plate specimens using powder as received. The sample was gently packed into a cavity cut into polished, zero-background (510) silicon wafer. The sample was rotated in its own plane during analysis. The details of the data collection are: • Angular range: 2 to 42° 2θ • Step size: 0.05° 2θ • Collection time: 0.5 s/step HPLC
as §1, §2

[3] = Three month stability and forced degradation study: particle morphology by polarised light microscopy (PLM); conditions: Replicate 1
Procedure: Samples were studied on a Leica LM/DM polarised light microscope with a digital video camera for image capture. A small amount of each sample was placed on a glass slide, 15 mounted in immersion oil and covered with a glass slip, the individual particles being separated as well as possible. The sample was viewed with appropriate magnification and partially polarised light, coupled to a λ false-color filter.
as §1, §2

[4] = Three month stability and forced degradation study: visual observations of stored solids
Procedure: as §1, §2, §3

[5] = solid stored 25° C., 0% RH, 4 weeks, Replicate 1
[6] = solid stored 25° C., 0% RH, 8 weeks, Replicate 1
[7] = solid stored 25° C., 0% RH, 12 weeks, Replicate 1
[8] = solid stored 25° C., 0% RH, 12 weeks, Replicate 1, listed as Crystalline Form 1
[9] = solid stored 25° C., 60% RH, 2 weeks, Replicate 2
[10] = solid stored 25° C., 60% RH, 4 weeks, Replicate 1
[11] = solid stored 25° C., 60% RH, 6 weeks, Replicate 2
[12] = solid stored 25° C., 60% RH, 8 weeks, Replicate 1
[13] = solid stored 25° C., 60% RH, 10 weeks, Replicate 2
[14] = solid stored 25° C., 60% RH, 12 weeks, Replicate 1
[15] = solid stored 25° C., 60% RH, 12 weeks, Replicate 2
[16] = solid stored 25° C., 97% RH, 2 weeks, Replicate 2
[17] = solid stored 25° C., 97% RH, 4 weeks, Replicate 1
[18] = solid stored 25° C., 97% RH, 6 weeks, Replicate 2
[19] = solid stored 25° C., 97% RH, 8 weeks, Replicate 1
[20] = solid stored 25° C., 97% RH, 10 weeks, Replicate 2
[21] = solid stored 25° C., 97% RH, 12 weeks, Replicate 1
[22] = solid stored 25° C., 97% RH, 12 weeks, Replicate 2
[23] = solid stored 40° C., 75% RH, 2 weeks, Replicate 2
[24] = solid stored 40° C., 75% RH, 4 weeks, Replicate 1
[25] = solid stored 40° C., 75% RH, 6 weeks, Replicate 2
[26] = solid stored 40° C., 75% RH, 8 weeks, Replicate 1
[27] = solid stored 40° C., 75% RH, 10 weeks, Replicate 2
[28] = solid stored 40° C., 75% RH, 12 weeks, Replicate 1
[29] = solid stored 40° C., 75% RH, 12 weeks, Replicate 2
[30] = t = 0, baseline of the stability study, listed as RME-1304-063-01
[31] = solid stored 25° C., 0% RH, 4 weeks
[32] = solid stored 25° C., 0% RH, 8 weeks
[33] = solid stored 25° C., 0% RH, 12 weeks
[34] = solid stored 25° C., 60% RH, 4 weeks
[35] = solid stored 25° C., 60% RH, 8 weeks
[36] = solid stored 25° C., 60% RH, 12 weeks
[37] = solid stored 25° C., 97% RH, 4 weeks
[38] = solid stored 25° C., 97% RH, 8 weeks
[39] = solid stored 25° C., 97% RH, 12 weeks
[40] = solid stored 40° C., 75% RH, 4 weeks
[41] = solid stored 40° C., 75% RH, 8 weeks
[42] = solid stored 40° C., 75% RH, 12 weeks

Compound: NC(=O)c1ccc[n+]([C@@H]2O[C@H](COP(=O)([O-])O)[C@@H](O)[C@H]2O)c1 [RME-1304-63-01, β-nicotinamide mononucleotide]
- chemical purity after storage ([1]; 4 weeks of storage at all the tested conditions): ~99.3%
- Known Impurity* (%) (nicotinamide, RRT = 1.73 min) [1, 5]: 0.25%
- Purity (%) [1, 5]: 99.4%
- Known Impurity* (%) (nicotinamide, RRT = 1.73 min) [1, 6]: 0.33%
- Purity (%) [1, 6]: 99.2%
- Known Impurity* (%) (nicotinamide, RRT = 1.73 min) [1, 7]: 0.38%
- Purity (%) [1, 7]: 98.9%
- Known Impurity* (%) (nicotinamide, RRT = 1.73 min) [1, 8]: 0.38%
- Purity (%) [1, 8]: 98.9%
- Known Impurity* (%) (nicotinamide, RRT = 1.73 min) [1, 9]: 0.19%
- Purity (%) [1, 9]: 99.6%
- Known Impurity* (%) (nicotinamide, RRT = 1.73 min) [1, 10]: 0.34%
- Purity (%) [1, 10]: 99.3%
- Known Impurity* (%) (nicotinamide, RRT = 1.73 min) [1, 11]: 0.21%
- Purity (%) [1, 11]: 99.5%
- Known Impurity* (%) (nicotinamide, RRT = 1.73 min) [1, 12]: 0.63%
- Purity (%) [1, 12]: 98.9%
- Known Impurity* (%) (nicotinamide, RRT = 1.73 min) [1, 13]: 0.35%
- Purity (%) [1, 13]: 99.1%
- Known Impurity* (%) (nicotinamide, RRT = 1.73 min) [1, 14]: 0.98%
- Purity (%) [1, 14]: 98.2%
- Known Impurity* (%) (nicotinamide, RRT = 1.73 min) [1, 15]: 0.23%
- Purity (%) [1, 15]: 98.8%
- Known Impurity* (%) (nicotinamide, RRT = 1.73 min) [1, 16]: 0.22%
- Purity (%) [1, 16]: 99.5%
- Known Impurity* (%) (nicotinamide, RRT = 1.73 min) [1, 17]: 0.49%
- Purity (%) [1, 17]: 99.3%
- Known Impurity* (%) (nicotinamide, RRT = 1.73 min) [1, 18]: 0.38%
- Purity (%) [1, 18]: 99.4%
- Known Impurity* (%) (nicotinamide, RRT = 1.73 min) [1, 19]: 1.38%
- Purity (%) [1, 19]: 98.3%
- Known Impurity* (%) (nicotinamide, RRT = 1.73 min) [1, 20]: 0.77%
- Purity (%) [1, 20]: 98.6%
- Known Impurity* (%) (nicotinamide, RRT = 1.73 min) [1, 21]: 3.46%
- Purity (%) [1, 21]: ~95.8^$ %
- Purity (%) ([1]; solid stored 25° C., 97% RH, 12 weeks, Replicate 1, listed as Crystalline Form 1): 95.8%
- Known Impurity* (%) (nicotinamide, RRT = 1.73 min) [1, 22]: 0.55%
- Purity (%) [1, 22]: 98.4%
- Known Impurity* (%) (nicotinamide, RRT = 1.73 min) [1, 23]: 0.22%
- Purity (%) [1, 23]: 99.5%
- Known Impurity* (%) (nicotinamide, RRT = 1.73 min) [1, 24]: 0.46%
- Purity (%) [1, 24]: 99.2%
- Known Impurity* (%) (nicotinamide, RRT = 1.73 min) [1, 25]: 0.27%
- Purity (%) [1, 25]: 99.4%
- Known Impurity* (%) (nicotinamide, RRT = 1.73 min) [1, 26]: 1.38%
- Purity (%) [1, 26]: 97.7%
- Known Impurity* (%) (nicotinamide, RRT = 1.73 min) [1, 27]: 0.49%
- Purity (%) [1, 27]: 98.8%
- Known Impurity* (%) (nicotinamide, RRT = 1.73 min) [1, 28]: 3.46%
- Purity (%) [1, 28]: 90.7%
- Known Impurity* (%) (nicotinamide, RRT = 1.73 min) [1, 29]: 0.77%
- Purity (%) [1, 29]: 97.4%
- HPLC purity profile, Area % of main peak (RRT 1.00) [1, 30]: 99.52 Area %
- HPLC purity profile, Area % of peak at RRT 1.76 / 1.74 (nicotinamide) [1, 30]: 0.12 Area %
- nicotinamide impurity ([1]; time 0): 0.12%
- Purity ([1]; time 0, listed as Crystalline Form 1): 99.5%
- solid form and particle morphology after storage ([2]; all conditions tested): remained unchanged
- XRPD [2, 31]: Unchanged
- XRPD [2, 32]: Unchanged
- XRPD [2, 33]: Unchanged
- XRPD [2, 34]: Unchanged
- XRPD [2, 35]: Unchanged
- XRPD [2, 36]: Unchanged
- XRPD [2, 37]: Unchanged
- XRPD [2, 38]: Unchanged
- XRPD [2, 39]: Unchanged
- XRPD [2, 40]: Unchanged
- XRPD [2, 41]: Unchanged
- XRPD [2, 42]: Unchanged
- PLM [3, 31]: acicular
- PLM [3, 32]: acicular
- PLM [3, 33]: acicular
- PLM [3, 34]: acicular
- PLM [3, 35]: acicular
- PLM [3, 36]: acicular
- PLM [3, 37]: acicular
- PLM [3, 38]: acicular
- PLM [3, 39]: acicular
- PLM [3, 40]: acicular
- PLM [3, 41]: acicular
- PLM [3, 42]: acicular
- Observations [4, 5]: white solid
- Observations [4, 6]: white solid
- Observations [4, 7]: white solid
- Observations [4, 9]: white solid
- Observations [4, 10]: light brown
- Observations [4, 11]: light brown
- Observations [4, 12]: light brown
- Observations [4, 13]: light brown
- Observations [4, 14]: light brown
- Observations [4, 15]: light brown
- Observations [4, 16]: white solid
- Observations [4, 17]: white solid
- Observations [4, 18]: white solid,
- Observations [4, 19]: white solid
- Observations [4, 20]: white solid, wet
- Observations [4, 21]: white solid,
- Observations [4, 22]: white solid, wet
- Observations [4, 23]: white solid
- Observations [4, 24]: white solid
- Observations [4, 25]: white solid
- Observations [4, 26]: white solid
- Observations [4, 27]: light brown
- Observations [4, 28]: brown solid,
- Observations [4, 29]: light brown
